Assay results published in the supplement of paper PMC11061612.

Assays:
[1] = compound: C=CCn1c(=O)c2cnc(Nc3ccc(N4CCN(C)CC4)cc3)nc2n1-c1cccc(C(C)(C)O)n1 [AZD1775]; conditions: max 3 µM
In short: (§1)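 Plates with 1536 wells received cancer cell lines in 7.5 μl of DMEM/F12 or RPMI containing 10% FBS. After 24 hours at 37°C and 5% CO2, cells were dosed for 72 hours with final DMSO typically 0.2%, and viability was read by CellTiter-Glo 2.0 luminescence scaled between blank-well and DMSO-well means. The single-agent IC50 was taken from a logistic fit of the dose responses made with a non-linear mixed effects model, that logistic curve having two parameters.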

[2] = compound: C[C@@H]1COCCN1C2=NC(=NC(=C2)C3(CC3)[S@](=N)(=O)C)C4=C5C=CNC5=NC=C4 [AZD6738]; conditions: max 10 µM
In short: as §1

[3] = compound: Cc1nc(-c2cn3c(n2)-c2ccc(-c4cnn(C(C)(C)C(N)=O)c4)cc2OCC3)n(C(C)C)n1 [Taselisib]; conditions: max 10 µM
In short: as §1

[4] = compound: Nc1ccn([C@@H]2O[C@H](CO)[C@@H](O)C2(F)F)c(=O)n1 [Gemcitabine]; conditions: max 0.3 µM
In short: as §1

[5] = compound: CC(=O)O[C@H]1C(=O)[C@@]2(C)[C@H]([C@H](OC(=O)c3ccccc3)[C@]3(O)C[C@H](OC(=O)[C@H](O)[C@@H](NC(=O)c4ccccc4)c4ccccc4)C(C)=C1C3(C)C)[C@]1(OC(C)=O)CO[C@@H]1C[C@@H]2O [Paclitaxel]; conditions: max 3 µM
In short: as §1

[6] = compound: Cc1cc2ncnn2cc1Nc1ncc2c(n1)n(C1CCOCC1)c(=O)n2C [AZD7648]; conditions: max 10 µM
In short: as §1

[7] = compound: CN(CC[C@H](CSC1=CC=CC=C1)NC2=C(C=C(C=C2)S(=O)(=O)NC(=O)C3=CC=C(C=C3)N4CCC(CC4)[C@H](C5=CC=CC=C5C6=CC=C(C=C6)Cl)O)S(=O)(=O)C(F)(F)F)CCO [AZD4320]; conditions: max 1 µM
In short: as §1

[8] = compound: CC1(C)CCC(CN2CCN(c3ccc(C(=O)NS(=O)(=O)c4ccc(NCC5CCOCC5)c([N+](=O)[O-])c4)c(Oc4cnc5[nH]ccc5c4)c3)CC2)=C(c2ccc(Cl)cc2)C1 [Venetoclax]; conditions: max 1 µM
In short: as §1

[9] = compound: C1CC(C1)(C(=O)[O-])C(=O)[O-].N.N.[Pt+2] [Carboplatin]; conditions: max 10 µM
In short: as §1

[10] = compound: N#Cc1cnc(Nc2cc(NC[C@H]3CNCCO3)c(C(F)(F)F)cn2)cn1 [SRA737]; conditions: max 10 µM
In short: as §1

[11] = compound: Cn1cnc2c(F)c(Nc3ccc(Br)cc3Cl)c(C(=O)NOCCO)cc21 [Selumetinib]; conditions: max 10 µM
In short: as §1

[12] = compound: Cc1c2c(nn1C)CSCc1cc(n(C)n1)CSc1cc(c3ccccc3c1)OCCCc1c(C(=O)O)n(C)c3c-2c(Cl)ccc13 [AZD5991]; conditions: max 1 µM
In short: as §1

[13] = compound: CN(C)CCCOc1ccc(-c2ccc3ncc4c(c3c2)n(C2CCOCC2)c(=O)n4C)cn1 [AZD0156]; conditions: max 3 µM
In short: as §1

[14] = compound: CC(=O)c1c(C)c2cnc(Nc3ccc(N4CCNCC4)cn3)nc2n(C2CCCC2)c1=O [Palbociclib]; conditions: max 10 µM
In short: as §1

[15] = compound: COc1cc(Nc2ncc3c(n2)-c2ccc(Cl)cc2C(c2c(F)cccc2OC)=NC3)ccc1C(=O)O [Alisertib]; conditions: max 10 µM
In short: as §1

[16] = compound: COc1cc2ncnc(Nc3ccc(F)c(Cl)c3)c2cc1OCCCN1CCOCC1 [Gefitinib]; conditions: max 10 µM
In short: as §1

[17] = compound: CC1=C(C(=CC=C1)Cl)NC(=O)C2=CN=C(S2)NC3=CC(=NC(=N3)C)N4CCN(CC4)CCO [Dasatinib]; conditions: max 2 µM
In short: as §1

[18] = compound: COc1cccc2c1C(=O)c1c(O)c3c(c(O)c1C2=O)C[C@@](O)(C(=O)CO)C[C@@H]3O[C@H]1C[C@H](N)[C@H](O)[C@H](C)O1 [Doxorubicin]; conditions: max 1 µM
In short: as §1

[19] = compound: NC1(c2ccc(-c3nc4ccn5c(=O)[nH]nc5c4cc3-c3ccccc3)cc2)CCC1 [MK-2206]; conditions: max 10 µM
In short: as §1

[20] = compound: C[C@@H](Oc1cc(-c2cnn(C3CCNCC3)c2)cnc1N)c1c(Cl)ccc(F)c1Cl [Crizotinib]; conditions: max 10 µM
In short: as §1

[21] = compound: CCc1c2c(nc3ccc(O)cc13)-c1cc3c(c(=O)n1C2)COC(=O)[C@]3(O)CC [SN-38]; conditions: max 0.3 µM
In short: as §1

[22] = compound: C[C@@H](c1ccc2nccn2c1)n1nnc2ncc(-c3cnn(C)c3)nc21 [Savolitinib]; conditions: max 1 µM
In short: as §1

[23] = compound: CS(=O)(=O)CCNCc1ccc(-c2ccc3ncnc(Nc4ccc(OCc5cccc(F)c5)c(Cl)c4)c3c2)o1 [Lapatinib]; conditions: max 10 µM
In short: as §1

[24] = compound: C[C@@H](Nc1cc(F)cc(F)c1)c1cc(C(=O)N(C)C)cc2c(=O)cc(N3CCOCC3)oc12 [AZD8186]; conditions: max 10 µM
In short: as §1

[25] = compound: CC(C)n1c(=O)n(C)c2cnc3cc(F)c(-c4ccc(OCCCN5CCCCC5)nc4)cc3c21 [AZD1390]; conditions: max 0.3 µM
In short: as §1

[26] = compound: CCN(CCO)CCCOc1ccc2c(Nc3cc(CC(=O)Nc4cccc(F)c4)[nH]n3)ncnc2c1 [AZD2811]; conditions: max 1 µM
In short: as §1

[27] = compound: O=C(Nc1ccc2[nH]nc(-c3ccncc3)c2c1)[C@@H]1CCN(CC(=O)N2CCN(c3ccc(-c4ncccn4)cc3)CC2)C1; conditions: max 5 µM
In short: as §1

[28] = compound: C1CN(CCC1(C(=O)N[C@@H](CCO)C2=CC=C(C=C2)Cl)N)C3=NC=NC4=C3C=CN4 [AZD5363]; conditions: max 10 µM
In short: as §1

[29] = compound: COc1nnc2ccc(N3CCC(c4ccc(OCCN5CCN(C)C(=O)[C@H]5C)cc4)CC3)nn12 [AZD5153]; conditions: max 1 µM
In short: as §1

[30] = compound: O=c1[nH]cc(F)c(=O)[nH]1 [5-Fluorouracil]; conditions: max 20 µM
In short: as §1

[31] = compound: CC1=CN2[C@@H](C1)C=NC3=CC(=C(C=C3C2=O)OC)OCCCCCOC4=C(C=C5C(=C4)N=C[C@@H]6CC(=CN6C5=O)C)OC [SG3199]; conditions: max 0.001 µM
In short: as §1

[32] = compound: COc1cc([C@@H]2c3cc4c(cc3[C@@H](O[C@@H]3O[C@@H]5CO[C@@H](C)O[C@H]5[C@H](O)[C@H]3O)[C@H]3COC(=O)[C@H]23)OCO4)cc(OC)c1O [Etoposide]; conditions: max 10 µM
In short: as §1

[33] = compound: COc1cccc(OCCCN)c1-c1cc(Nc2cnc(C#N)cn2)n[nH]1 [Prexasertib]; conditions: max 1 µM
In short: as §1

[34] = compound: O=C(c1cc(Cc2n[nH]c(=O)c3ccccc23)ccc1F)N1CCN(C(=O)C2CC2)CC1 [Olaparib]; conditions: max 10 µM
In short: as §1

[35] = compound: CC(=O)Nc1cccc(-n2c(=O)n(C3CC3)c(=O)c3c(Nc4ccc(I)cc4F)n(C)c(=O)c(C)c32)c1 [Trametinib]; conditions: max 1 µM
In short: as §1

| Cell Line | IC50, cell viability 72 h [1] | IC50, cell viability 72 h [2] | IC50, cell viability 72 h [3] | IC50, cell viability 72 h [4] | IC50, cell viability 72 h [5] | IC50, cell viability 72 h [6] | IC50, cell viability 72 h [7] | IC50, cell viability 72 h [8] | IC50, cell viability 72 h [9] | IC50, cell viability 72 h [10] | IC50, cell viability 72 h [11] | IC50, cell viability 72 h [12] | IC50, cell viability 72 h [13] | IC50, cell viability 72 h [14] | IC50, cell viability 72 h [15] | IC50, cell viability 72 h [16] | IC50, cell viability 72 h [17] | IC50, cell viability 72 h [18] | IC50, cell viability 72 h [19] | IC50, cell viability 72 h [20] | IC50, cell viability 72 h [21] | IC50, cell viability 72 h [22] | IC50, cell viability 72 h [23] | IC50, cell viability 72 h [24] | IC50, cell viability 72 h [25] | IC50, cell viability 72 h [26] | IC50, cell viability 72 h [27] | IC50, cell viability 72 h [28] | IC50, cell viability 72 h [29] | IC50, cell viability 72 h [30] | IC50, cell viability 72 h [31] | IC50, cell viability 72 h [32] | IC50, cell viability 72 h [33] | IC50, cell viability 72 h [34] | IC50, cell viability 72 h [35] |
| --- | --- | --- | --- | --- | --- | --- | --- | --- | --- | --- | --- | --- | --- | --- | --- | --- | --- | --- | --- | --- | --- | --- | --- | --- | --- | --- | --- | --- | --- | --- | --- | --- | --- | --- | --- |
| LK-2 (Squamous Cell Lung Carcinoma) | 295 nM | > 10000 nM | > 10000 nM | 277 nM | 5.55 nM | > 10000 nM | > 1000 nM | > 1000 nM | > 10000 nM | > 10000 nM | > 10000 nM | > 1000 nM | > 3000 nM | > 10000 nM | 60.6 nM | > 10000 nM | > 2000 nM | > 1000 nM | > 10000 nM | 5710 nM | 199 nM | > 1000 nM | > 10000 nM | > 10000 nM | > 300 nM | 55.1 nM | 1930 nM | > 10000 nM | > 1000 nM | > 20000 nM | > 1 nM | 9260 nM | 137 nM | > 10000 nM | 349 nM |
| MFE-280 (Endometrial Carcinoma) | > 3000 nM | > 10000 nM | 177 nM | > 300 nM | 533 nM | > 10000 nM | > 1000 nM | > 1000 nM | > 10000 nM | > 10000 nM | > 10000 nM | > 1000 nM | > 3000 nM | > 10000 nM | 4940 nM | > 10000 nM | > 2000 nM | > 1000 nM | 3590 nM | > 10000 nM | 198 nM | > 1000 nM | > 10000 nM | > 10000 nM | > 300 nM | > 1000 nM | > 5000 nM | > 10000 nM | > 1000 nM | > 20000 nM | > 1 nM | 7530 nM | > 1000 nM | > 10000 nM | > 1000 nM |
| MKN45 (Gastric Carcinoma) | 497 nM | 2730 nM | 6450 nM | 53.6 nM | 43.5 nM | > 10000 nM | > 1000 nM | > 1000 nM | > 10000 nM | 3610 nM | 5840 nM | > 1000 nM | > 3000 nM | 9410 nM | > 10000 nM | > 10000 nM | > 2000 nM | 544 nM | 5470 nM | 82.7 nM | 32.9 nM | 13.1 nM | > 10000 nM | > 10000 nM | > 300 nM | > 1000 nM | 821 nM | > 10000 nM | 719 nM | > 20000 nM | > 1 nM | > 10000 nM | 19.7 nM | > 10000 nM | 59.9 nM |
